“Also recorded” adds a separate entry of the source.
Experiments:
O=c1cc[nH]c(=O)[nH]1 = assay: cells, lysate or membranes; details: corrected for uptake into uninduced cells, pH 7.0
Nc1ncnc2nc[nH]c12 = assay: cells, lysate or membranes; details: corrected for uptake into uninduced cells, pH 7.0
PLUTO W223A = molecular target: T1, PLUTO W223A (Arabidopsis thaliana, UniProt Q9LZD0, W223A); format: cell-based; details: mutant W223A, 200 μM competitor; for Effect of competitor on guanine transport: 20 μM guanine; for Effect of competitor on uracil transport: 20 μM uracil
T1 construct: Heterologous expression of the full length PLUTO Arabidopsis gene in Escherichia coli uraA insertion mutants; expressed in transfected cells; host or cells: Escherichia coli JD23420 (uraA transposon insertion strain), vector pTAC-MAT-Tag-2
T1 sequence (Q9LZD0 whole entry W223A): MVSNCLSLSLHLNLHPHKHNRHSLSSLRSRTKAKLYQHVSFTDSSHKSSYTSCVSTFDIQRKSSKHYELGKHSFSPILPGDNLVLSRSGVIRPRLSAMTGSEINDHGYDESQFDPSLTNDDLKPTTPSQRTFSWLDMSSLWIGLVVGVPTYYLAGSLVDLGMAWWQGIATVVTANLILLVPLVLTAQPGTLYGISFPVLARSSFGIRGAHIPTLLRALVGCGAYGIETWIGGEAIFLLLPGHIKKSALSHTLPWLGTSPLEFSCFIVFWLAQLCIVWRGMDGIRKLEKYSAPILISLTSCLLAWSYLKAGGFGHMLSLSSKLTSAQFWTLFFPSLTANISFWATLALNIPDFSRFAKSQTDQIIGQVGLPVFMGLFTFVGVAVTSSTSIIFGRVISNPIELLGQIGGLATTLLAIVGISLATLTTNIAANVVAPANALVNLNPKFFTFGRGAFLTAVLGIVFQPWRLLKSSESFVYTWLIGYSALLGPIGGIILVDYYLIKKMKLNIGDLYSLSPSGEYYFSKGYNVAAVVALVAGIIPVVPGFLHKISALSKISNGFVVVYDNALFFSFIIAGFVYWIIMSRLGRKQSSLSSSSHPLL
Source text: (§1) For the uptake experiments, PLUTO was heterologously expressed in an Escherichia coli transposon insertion strain lacking the endogenous uracil permease uraA (JD23420), obtained from the National Institute of Genetics (Shizuoka, Japan; http://www.shigen.nig.ac.jp/ecoli/strain/top/top.jsp). PLUTO and site directed mutants were cloned in the bacterial expression vector pTAC-MAT-Tag-2 (Sigma Aldrich, Deisenhofen, Germany) as previously described. After the transformation of the cells with the PLUTO expression plasmids, the cells were grown at 37°C and 170 rpm in YT medium containing ampicillin and kanamycin. The expression of PLUTO and site directed mutants was initiated by the addition of isopropyl β-D-thiogalactopyranosid (IPTG) with a final concentration of 0.02% at an OD600 of 0.5. The cells were grown for 2 h after induction, collected by centrifugation for 5 min at 4500 g and 4°C and resuspended with potassium phosphate buffer (50 mM, pH 7.0) to an OD600 of 5. The cells were stored on ice until use.
(§2) Site directed mutagenesis was achieved by using the QuickChange II-E Site directed mutagenesis kit (Stratagene) according to the manufacturer's instructions.
(§3) The uptake of nucleobases with concentrations of 20 μM was performed at 37°C and permanent shaking at 200 rpm. For the analysis of PLUTO mutants the cells were incubated for 5 min (2 min for competition studies) and the uptake was terminated by vacuum filtration through a membrane filter (0.45 μm pore size; Whatman). The cells were washed three times with 1 ml ice cold potassium phosphate buffer (50 mM, pH 7.0) to remove unimported nucleobases and the radioactivity was quantified in a Packard Tricarb 2500 scintillation counter after the addition of 4 mL scintillation cocktail (Roth). For the competition studies, all competitors were added with ten-fold excess (200 μM) to the uptake medium containing 20 μM radiolabelled nucleobases.

PLUTO [1] = molecular target: T2, PLUTO (Arabidopsis thaliana, UniProt Q9LZD0); format: cell-based; details: wild type PLUTO, 200 μM competitor; for Effect of competitor on guanine transport: 20 μM radiolabelled guanine; for Effect of competitor on guanine transport / Effect of competitor on adenine transport / Effect of competitor on uracil transport: 2 min; for Effect of competitor on adenine transport: 20 μM radiolabelled adenine; for Effect of competitor on uracil transport: 20 μM [14C]-uracil
T2 construct: Heterologous expression of the full length PLUTO Arabidopsis gene in Escherichia coli uraA insertion mutants; expressed in transfected cells; host or cells: Escherichia coli JD23420 (uraA transposon insertion strain), vector pTAC-MAT-Tag-2
T2 sequence (Q9LZD0 1-599): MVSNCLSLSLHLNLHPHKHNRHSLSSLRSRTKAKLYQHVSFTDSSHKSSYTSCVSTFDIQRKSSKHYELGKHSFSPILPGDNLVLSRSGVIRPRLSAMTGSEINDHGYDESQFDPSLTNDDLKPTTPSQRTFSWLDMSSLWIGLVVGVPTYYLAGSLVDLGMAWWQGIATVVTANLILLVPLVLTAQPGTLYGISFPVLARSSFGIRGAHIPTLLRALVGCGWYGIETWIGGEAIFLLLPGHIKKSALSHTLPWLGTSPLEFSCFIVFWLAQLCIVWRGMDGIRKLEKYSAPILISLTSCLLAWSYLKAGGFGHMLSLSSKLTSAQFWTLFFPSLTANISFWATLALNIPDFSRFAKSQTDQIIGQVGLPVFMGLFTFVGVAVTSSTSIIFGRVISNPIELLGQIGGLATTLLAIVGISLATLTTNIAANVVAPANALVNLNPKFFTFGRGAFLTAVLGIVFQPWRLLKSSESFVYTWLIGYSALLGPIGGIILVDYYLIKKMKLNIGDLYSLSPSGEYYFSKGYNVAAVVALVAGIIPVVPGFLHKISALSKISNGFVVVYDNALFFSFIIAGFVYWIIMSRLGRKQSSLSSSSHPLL
Source text: as §1, §3

PLUTO I226A = PLUTO I226A (Arabidopsis thaliana, UniProt Q9LZD0, I226A); details: mutant I226A; 20 μM guanine, 200 μM competitor
Chain of PLUTO I226A (Q9LZD0 whole entry I226A): as the sequence (Q9LZD0 whole entry W223A) above, with A223W, I226A counted along it
Source text: as §1, §2, §3

PLUTO F341A = PLUTO F341A (Arabidopsis thaliana, UniProt Q9LZD0, F341A); details: mutant F341A; 20 μM guanine, 200 μM competitor
Chain of PLUTO F341A (Q9LZD0 whole entry F341A): as the sequence (Q9LZD0 whole entry W223A) above, with A223W, F341A counted along it
Source text: as §1, §2, §3

PLUTO E227K = molecular target: T3, PLUTO E227K (Arabidopsis thaliana, UniProt Q9LZD0, E227K); assay: Radiolabelled nucleobase uptake, PLUTO mutant in E. coli lacking uraA; format: cell-based; details: 20 μM, 5 min
T3 construct: Heterologous expression of the full length PLUTO Arabidopsis gene in Escherichia coli uraA insertion mutants; expressed in transfected cells; host or cells: Escherichia coli JD23420 (uraA transposon insertion strain), vector pTAC-MAT-Tag-2
T3 sequence (Q9LZD0 whole entry E227K): as the sequence (Q9LZD0 whole entry W223A) above, with A223W, E227K counted along it
Source text: as §1, §2, §3

PLUTO E227Q G147Q = molecular target: T4, PLUTO E227Q G147Q (Arabidopsis thaliana, UniProt Q9LZD0, E227Q/G147Q); assay: as above; format: cell-based; details: 20 μM, 5 min
T4 construct: Heterologous expression of the full length PLUTO Arabidopsis gene in Escherichia coli uraA insertion mutants; expressed in transfected cells; host or cells: Escherichia coli JD23420 (uraA transposon insertion strain), vector pTAC-MAT-Tag-2
T4 sequence (Q9LZD0 whole entry G147Q/E227Q): as the sequence (Q9LZD0 whole entry W223A) above, with G147Q, A223W, E227Q counted along it
Source text: as §1, §2, §3

PLUTO [2] = molecular target: T2, PLUTO; assay: Radiolabelled nucleobase uptake, wild type PLUTO expressed in E. coli lacking uraA; format: cell-based; details: for Net import: wild type PLUTO (control), 5 min, corrected for uninduced cells
Source text: The cells were stored on ice until use.

PLUTO [3] = molecular target: T2, PLUTO; details: full length PLUTO in E. coli uraA insertion mutants; ref [4]; cited from earlier work
PLUTO E227D = PLUTO E227D (Arabidopsis thaliana, UniProt Q9LZD0, E227D); details: mutant E227D; 20 μM; 5 min
Chain of PLUTO E227D (Q9LZD0 whole entry E227D): as the sequence (Q9LZD0 whole entry W223A) above, with A223W, E227D counted along it
Source text: as §1, §2, §3

PLUTO G147Q = PLUTO G147Q (Arabidopsis thaliana, UniProt Q9LZD0, G147Q); details: mutant G147Q; 20 μM; 5 min
Chain of PLUTO G147Q (Q9LZD0 whole entry G147Q): as the sequence (Q9LZD0 whole entry W223A) above, with G147Q, A223W counted along it
Source text: as §1, §2, §3

PLUTO E227A = PLUTO E227A (Arabidopsis thaliana, UniProt Q9LZD0, E227A); assay: Radiolabelled nucleobase uptake, PLUTO mutant in E. coli lacking uraA; details: 20 μM, 5 min
Chain of PLUTO E227A (Q9LZD0 whole entry E227A): as the sequence (Q9LZD0 whole entry W223A) above, with A223W, E227A counted along it
Source text: as §1, §2, §3

PLUTO E227Q = PLUTO E227Q (Arabidopsis thaliana, UniProt Q9LZD0, E227Q); assay: as above; details: 20 μM, 5 min
Chain of PLUTO E227Q (Q9LZD0 whole entry E227Q): as the sequence (Q9LZD0 whole entry W223A) above, with A223W, E227Q counted along it
Source text: as §1, §2, §3

PLUTO V145A G147Q = PLUTO V145A G147Q (Arabidopsis thaliana, UniProt Q9LZD0, G147Q/V145A); assay: as above; details: 20 μM, 5 min
Chain of PLUTO V145A G147Q (Q9LZD0 whole entry V145A/G147Q): as the sequence (Q9LZD0 whole entry W223A) above, with V145A, G147Q, A223W counted along it
Source text: as §1, §2, §3

Nc1nc2nc[nH]c2c(=O)[nH]1 = assay: cells, lysate or membranes; details: pH 7.0; 37.0 °C
PLUTO E227Q T425A = molecular target: T5, PLUTO E227Q T425A (Arabidopsis thaliana, UniProt Q9LZD0, E227Q/T425A); assay: Radiolabelled nucleobase uptake, PLUTO mutant in E. coli lacking uraA; format: cell-based; details: 20 μM, 5 min
T5 construct: Heterologous expression of the full length PLUTO Arabidopsis gene in Escherichia coli uraA insertion mutants; expressed in transfected cells; host or cells: Escherichia coli JD23420 (uraA transposon insertion strain), vector pTAC-MAT-Tag-2
T5 sequence (Q9LZD0 whole entry E227Q/T425A): as the sequence (Q9LZD0 whole entry W223A) above, with A223W, E227Q, T425A counted along it
Source text: as §1, §2, §3

PLUTO V145A G147Q (Arabidopsis thaliana; G147Q/V145A)
Km (O=c1cc[nH]c(=O)[nH]1; other: mutant V145A G147Q): 20.15 (±3.73) μM
Km (Nc1ncnc2nc[nH]c12; other: mutant V145A G147Q): 0.81 (±0.17) μM

O=c1[nH]c(=O)c2[nH]c(=O)[nH]c2[nH]1 [uric acid]
Effect of competitor on guanine transport (PLUTO W223A): no longer able to inhibit
Effect of competitor on guanine transport (PLUTO [1]): affected

PLUTO G147Q (Arabidopsis thaliana; G147Q)
Km (O=c1cc[nH]c(=O)[nH]1; other: mutant G147Q): 36.07 (±2,32) μM
Km (Nc1ncnc2nc[nH]c12; other: mutant G147Q): 0.68 (±0.20) μM

Cc1ncc(C[n+]2csc(CCO)c2C)c(N)n1 [thiamine]
Effect of competitor on uracil transport (PLUTO W223A): inhibited

O=c1[nH]cnc2nc[nH]c12 [hypoxanthine]
Effect of competitor on guanine transport (PLUTO W223A): no longer able to inhibit
Effect of competitor on guanine transport (PLUTO [1]): affected; also recorded: marked inhibition
Effect of competitor on guanine transport (PLUTO I226A): inhibited
Effect of competitor on guanine transport (PLUTO F341A): inhibited

O=c1cc[nH]c(=O)[nH]1 [uracil]
Transport activity (in words) (PLUTO E227K): completely extinguished
Residual transport compared to controls (PLUTO E227Q G147Q): ≤ 16%
Net import (PLUTO [2]; 20 μM): 3.2 nmol mg^−1 protein
Import into induced E. coli cells (PLUTO [2]; wild type PLUTO, 20 μM, 5 min incubation, not corrected for uninduced cells): 3.7±0.28 nmol mg^−1 protein
Effect of competitor on adenine transport (PLUTO [1]): not influenced
Effect of competitor on guanine transport (PLUTO [1]): marked inhibitory effects
Apparent affinity (PLUTO [3]): 16.4 µM
Transport (PLUTO E227D): 0.53 nmol mg^−1 protein
Transport activity (in words) (PLUTO G147Q): not significantly altered
Transport activity (in words) (PLUTO E227A): completely extinguished
Transport activity (in words) (PLUTO E227Q): completely extinguished
Increase of transport versus control (PLUTO V145A G147Q): 50%

O=C1CCNC(=O)N1 [dihydrouracil]
Effect of competitor on uracil transport (PLUTO W223A): inhibited

O=C1NC(=O)C(Cc2ccccc2)N1 (stereo not shown) [benzyl hydantoin]
Transport by PLUTO judged by competitive binding analysis (PLUTO [1]): no indication for a transport

PLUTO E227Q (Arabidopsis thaliana; E227Q)
Km (Nc1ncnc2nc[nH]c12; other: mutant E227Q): 0.22 (±0.05) μM

PLUTO E227D (Arabidopsis thaliana; E227D)
Km (Nc1nc2nc[nH]c2c(=O)[nH]1): 3.70 (±0.72) μM
Km (O=c1cc[nH]c(=O)[nH]1; other: mutant E227D): 5.18 (±1.21) μM
Km (Nc1ncnc2nc[nH]c12; other: mutant E227D): 0.97 (±0.21) μM

O=C(O)c1cc(=O)[nH]c(=O)[nH]1 [orotate]
Transport substrate status in direct uptake studies (PLUTO [2]; wild type PLUTO): not identified as transport substrates
Effect of competitor on uracil transport (PLUTO [1]): affected

Nc1ncnc2[nH]cnc12 [adenine]
Residual transport compared to controls (PLUTO E227Q T425A): 32%
Residual transport compared to controls (PLUTO E227K): 7%
Residual transport compared to controls (PLUTO E227Q G147Q): ≤ 16%
Effect of competitor on uracil transport (PLUTO [1]): remained unaffected
Effect of competitor on guanine transport (PLUTO [1]): marked inhibitory effects
Apparent affinity (PLUTO [3]): 0.4 µM
Transport (PLUTO E227D): 2.1 nmol mg^−1 protein
Transport rate relative to controls (PLUTO E227D): 64%
Impairment of transport versus control (PLUTO G147Q): 45%
Residual transport compared to controls (PLUTO E227A): 26%
Increase of transport versus control (PLUTO E227Q): 21%

Cc1c[nH]c(=O)[nH]c1=O [thymine]
Effect of competitor on uracil transport (PLUTO W223A): inhibited
Transport substrate status in direct uptake studies (PLUTO [2]; wild type PLUTO): not identified as transport substrates
Effect of competitor on uracil transport (PLUTO [1]): affected

PLUTO E227A (Arabidopsis thaliana; E227A)
Km (Nc1ncnc2nc[nH]c12; other: mutant E227A): 0.21 (±0.05) μM

Nc1nc2nc[nH]c2c(=O)[nH]1 [guanine]
Residual transport compared to controls (PLUTO E227Q T425A): 25%
Residual transport compared to controls (PLUTO E227K): 11%
Residual transport compared to controls (PLUTO E227Q G147Q): ≤ 16%
Net import (PLUTO [2]; 20 μM): 3.4 nmol mg^−1 protein
Effect of competitor on uracil transport (PLUTO [1]): reduced
Effect of competitor on adenine transport (PLUTO [1]): not influenced
Apparent affinity (PLUTO [3]): 6.3 µM
Transport (PLUTO E227D): 0.86 nmol mg^−1 protein
Transport activity (in words) (PLUTO G147Q): not significantly altered
Residual transport compared to controls (PLUTO E227A): 4%
Residual transport compared to controls (PLUTO E227Q): 21%
Residual transport relative to controls (PLUTO V145A G147Q): 12%
